Reference: ChEMBL document CHEMBL3885861, “Open TG-GATES”

Species on record: Rattus norvegicus
Assay: Open TG-GATES - Regimen: Daily Repeat
Format: toxicity, organism-based, Sprague-Dawley
Design: regimen Daily Repeat, gender Male, age 6 weeks
Details: in vivo, po, 100 mg/kg, route gavage, dose level Low; for APTT / Bas / Eos / Fbg / Hb / Ht / Lym / MCH / MCHC / MCV / Mono / Neu / PT / Plat / RBC / Ret / WBC: tissue Blood
[1] = 72 h, tissue Kidney, time 3 day
[2] = 72 h, tissue Plasma, time 3 day

`O=C(O)c1cc(/N=N/c2ccc(S(=O)(=O)Nc3ccccn3)cc2)ccc1O` [SULFASALAZINE] showed a TERMINAL_BW (72 h, time 3 day) of 236.6 g, an APTT (72 h, time 3 day) of 18.4 s and a Bas (72 h, time 3 day) of 0%. For the same compound, the Eos (72 h, time 3 day) was 1%, the Fbg (72 h, time 3 day) was 226.6 mg/dL and the Hb (72 h, time 3 day) was 13.6 g/dL. For the same compound, the Ht (72 h, time 3 day) was 39.7%, the Lym (72 h, time 3 day) was 79.8% and the MCH (72 h, time 3 day) was 21.5 pg. It also gave an MCHC (72 h, time 3 day) of 34.3%, an MCV (72 h, time 3 day) of 62.6 fL and a Mono (72 h, time 3 day) of 3.2%. For the same compound, the Neu (72 h, time 3 day) was 14.4%, the PT (72 h, time 3 day) was 12.6 s and the Plat (72 h, time 3 day) was 129.7 x10_4/uL. It also gave an RBC (72 h, time 3 day) of 634.2 x10_4/ul, a Ret (72 h, time 3 day) of 6.4% and a WBC (72 h, time 3 day) of 114.1 x10_2/uL. It also gave a KIDNEY_L [1] of 1 g, a KIDNEY_R [1] of 1 g and a KIDNEY_TOTAL [1] of 2 g. For the same compound, the LIVER (72 h, tissue Liver, time 3 day) was 10.9 g, the A/G [2] was 1.5 and the ALP [2] was 979.2 IU/L. It also gave an ALT [2] of 44.4 IU/L, an AST [2] of 86.8 IU/L and a BUN [2] of 16.4 mg/dL. The CRE [2] was 0.4 mg/dL, the Ca [2] was 10.9 mg/dL and the Cl [2] was 103 meq/L. It also gave a DBIL [2] of 0.09 mg/dL, a GLC [2] of 201 mg/dL and an IP [2] of 7.4 mg/dL. It also gave a K [2] of 4.2 meq/L, an LDH [2] of 286.8 IU/L and a Na [2] of 140.4 meq/L. The PL [2] was 154.6 mg/dL, the RALB [2] was 3.3 g/dL and the TBIL [2] was 0.1 mg/dL. The TC [2] was 76.8 mg/dL, the TG [2] was 83.4 mg/dL and the TP [2] was 5.6 g/dL. For the same compound, the gamma-GTP [2] was 1.4 IU/L, the TERMINAL_BW ([…], time 7 day) was 262.7 g and the TERMINAL_BW ([…], time 14 day) was 309.6 g. The TERMINAL_BW ([…], time 28 day) was 389.8 g, the APTT ([…], time 7 day) was 19.1 s and the Bas ([…], time 7 day) was 0%. For the same compound, the Eos ([…], time 7 day) was 1%, the Fbg ([…], time 7 day) was 216.2 mg/dL and the Hb ([…], time 7 day) was 13.8 g/dL. It also gave a Ht ([…], time 7 day) of 39.9%, a Lym ([…], time 7 day) of 82% and an MCH ([…], time 7 day) of 21.1 pg. For the same compound, the MCHC ([…], time 7 day) was 34.5%, the MCV ([…], time 7 day) was 61.3 fL and the Mono ([…], time 7 day) was 1.8%. The Neu ([…], time 7 day) was 13.6%, the PT ([…], time 7 day) was 12.5 s and the Plat ([…], time 7 day) was 116 x10_4/uL. For the same compound, the RBC ([…], time 7 day) was 651.8 x10_4/ul, the Ret ([…], time 7 day) was 5.1% and the WBC ([…], time 7 day) was 110 x10_2/uL. The APTT ([…], time 14 day) was 19.4 s, the Bas ([…], time 14 day) was 0% and the Eos ([…], time 14 day) was 1%. It also gave a Fbg ([…], time 14 day) of 214 mg/dL, a Hb ([…], time 14 day) of 14.5 g/dL and a Ht ([…], time 14 day) of 41.3%. It also gave a Lym ([…], time 14 day) of 79.2%, an MCH ([…], time 14 day) of 21.2 pg and an MCHC ([…], time 14 day) of 35.1%. It also gave an MCV ([…], time 14 day) of 60.4 fL, a Mono ([…], time 14 day) of 2.6% and a Neu ([…], time 14 day) of 16.2%. For the same compound, the PT ([…], time 14 day) was 12.5 s, the Plat ([…], time 14 day) was 107.7 x10_4/uL and the RBC ([…], time 14 day) was 684.4 x10_4/ul. It also gave a Ret ([…], time 14 day) of 4.6%, a WBC ([…], time 14 day) of 116.3 x10_2/uL and an APTT ([…], time 28 day) of 19.7 s. It also gave a Bas ([…], time 28 day) of 0%, an Eos ([…], time 28 day) of 1% and a Fbg ([…], time 28 day) of 231 mg/dL. It also gave a Hb ([…], time 28 day) of 15.1 g/dL and a Ht ([…], time 28 day) of 42.4%.
